According to patent publication US6660774B2, “Use of (+)-tramadol, O-demethyltramadol or (+)-O-demethyl-tramadol, O-desmethyl-N-mono-desmethyl-tramadol or (+)- O-desmethyl-N-mono-desmethyltramadol” (Gruenethal GmbH, priority 1999, dated 2003):

Test system: virgin, female Sprague-Dawley rats (bladder function)
Test: Cystometric testing on conscious, virgin rats
Type: in vivo, rat
[1] = 1.0 mg/kg i.v., Diff.: change relative to the initial value
[2] = 1.0 mg/kg i.v., h: after administration, at maximum action
[3] = 1.0 mg/kg i.v., v: before administration (initial value)
[4] = 5.0 mg/kg i.v., Diff.: change relative to the initial value
[5] = 5.0 mg/kg i.v., h: after administration, at maximum action
[6] = 5.0 mg/kg i.v., v: before administration (initial value)
[7] = 10.0 mg/kg i.v., Diff.: change relative to the initial value
[8] = 10.0 mg/kg i.v., h: after administration, at maximum action
[9] = 10.0 mg/kg i.v., v: before administration (initial value)

## COc1cccc([C@@]2(O)CCCC[C@@H]2CN(C)C)c1 (racemic) [Tramadol, (1RS,2RS)-2-dimethylaminomethyl-1-(3-methoxyphenyl)cyclohexanol]
[1]
  Basal pressure: Diff.: +26%
  Bladder capacity: Diff.: −2%
  Micturition pressure: Diff.: −10%
  Micturition volume: Diff.: +27%
  Residual volume: Diff.: −89%
  Threshold pressure: Diff.: +50%
[2]
  Basal pressure: h: 11.34 ± 1.54 cm H2O
  Bladder capacity: h: 0.82 ± 0.09 ml
  Micturition pressure: h: 85 ± 6 cm H2O
  Micturition volume: h: 0.95 ± 0.08 ml
  Residual volume: h: 0.01 ± 0.005 ml
  Threshold pressure: h: 21.03 ± 3.10 cm H2O
[3]
  Basal pressure: v: 9.02 ± 1.12 cm H2O
  Bladder capacity: v: 0.84 ± 0.11 ml
  Micturition pressure: v: 94 ± 7 cm H2O
  Micturition volume: v: 0.75 ± 0.09 ml
  Residual volume: v: 0.09 ± 0.02 ml
  Threshold pressure: v: 14.0 ± 2.04 cm H2O
5 mg/kg
  action on threshold pressure compared with 10 mg/kg of racemic tramadol: doubled
[4]
  Basal pressure: Diff.: +1%
  Bladder capacity: Diff.: +6%
  Inter-contraction interval: Diff.: −11%
  Micturition pressure: Diff.: −27%
  Micturition volume: Diff.: +42%
  Residual volume: Diff.: −73%
  Threshold pressure: Diff.: +37%
[5]
  Basal pressure: h: 9.30 ± 2.10 cm H2O
  Bladder capacity: h: 0.92 ± 0.08 ml
  Micturition pressure: h: 75 ± 10 cm H2O
  Micturition volume: h: 1.08 ± 0.09 ml
  Residual volume: h: 0.03 ± 0.01 ml
  Threshold pressure: h: 17.05 ± 2.33 cm H2O
[6]
  Basal pressure: v: 9.21 ± 1.35 cm H2O
  Bladder capacity: v: 0.87 ± 0.07 ml
  Micturition pressure: v: 103 ± 10 cm H2O
  Micturition volume: v: 0.76 ± 0.06 ml
  Residual volume: v: 0.11 ± 0.02 ml
  Threshold pressure: v: 12.45 ± 1.411 cm H2O
10 mg/kg i.v.
  threshold pressure (in words): distinct rise
[7]
  Basal pressure: Diff.: +40%
  Bladder capacity: Diff.: −18%
  Inter-contraction interval: Diff.: −40%
  Micturition pressure: Diff.: −11%
  Micturition volume: Diff.: +33%
  Residual volume: Diff.: −50%
  Threshold pressure: Diff.: +70%
[8]
  Basal pressure: h: 14.31 ± 1.89 cm H2O
  Bladder capacity: h: 0.78 ± 0.08 ml
  Micturition pressure: h: 66 ± 5 cm H2O
  Micturition volume: h: 1.13 ± 0.08 ml
  Residual volume: h: 0.05 ± 0.005 ml
  Threshold pressure: h: 25.50 ± 2.40 cm H2O
[9]
  Basal pressure: v: 10.21 ± 1.03 cm H2O
  Bladder capacity: v: 0.95 ± 0.06 ml
  Micturition pressure: v: 74 ± 5 cm H2O
  Micturition volume: v: 0.85 ± 0.05 ml
  Residual volume: v: 0.10 ± 0.02 ml
  Threshold pressure: v: 15.01 ± 1.32 cm H2O
Most effective dose (10 mg/kg)
  ICI (in words): distinct reduction
